From patent EP4818168A1, “FUSED RING COMPOUND, PHARMACEUTICAL COMPOSITION THEREOF AND USE THEREOF” (priority 2023, dated 2025)

target: T1, AURKA (Homo sapiens, UniProt O14965); test: not given; format: cell-based; details: 100 nM compound, Jurkat cells, 24 h, Table 2
T1 construct: endogenous in cells; host or cells: Jurkat cells
T1 sequence (O14965 1-403): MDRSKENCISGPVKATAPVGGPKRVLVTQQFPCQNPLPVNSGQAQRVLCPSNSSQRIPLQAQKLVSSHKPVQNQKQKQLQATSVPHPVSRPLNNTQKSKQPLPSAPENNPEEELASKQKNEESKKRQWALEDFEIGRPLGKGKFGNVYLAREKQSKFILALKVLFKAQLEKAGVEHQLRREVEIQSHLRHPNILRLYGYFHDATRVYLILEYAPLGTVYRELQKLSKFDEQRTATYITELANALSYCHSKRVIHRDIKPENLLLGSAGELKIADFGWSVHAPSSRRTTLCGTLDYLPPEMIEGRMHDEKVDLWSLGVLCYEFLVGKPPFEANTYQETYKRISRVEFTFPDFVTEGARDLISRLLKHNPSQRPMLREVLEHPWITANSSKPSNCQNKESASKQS
Summary of the method: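 Jurkat cells seeded at 1×10^6 cells/500 µL and treated with compound; lysates run on SDS-PAGE, blotted to nitrocellulose and probed overnight at 4°C for AURKA. Chemiluminescent or fluorescent band intensity fitted to a curve to give DC50 for protein degradation.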

Row | Structure (SMILES) | Percentage of AURKA Degradation Induced by 100 nM Compound in Jurkat Cells
1 | COc1cc(Nc2ncc3c(n2)-c2ccc(Cl)cc2C(c2c(F)cccc2OC)=NC3)ccc1N1CCN(C2CCN(c3ccc(N4CCC(=O)NC4=O)cn3)CC2)CC1 [Compound A256] | +++ (Degradation > 70%)
2 | O=C1CCN(c2ccc(N3CCN(CC4(O)CN(c5ccc(Nc6ncc7c(n6)-c6ccc(Cl)cc6C(c6c(F)cccc6F)=NC7)cc5)C4)CC3)nc2)C(=O)N1 [Compound A281] | +++ (Degradation > 70%)
3 | O=C1CCN(c2cccc(N3CCC(CN4CCOc5ccc(Nc6ncc7c(n6)-c6ccc(Cl)cc6C(c6c(F)cccc6F)=NC7)cc5C4)CC3)c2)C(=O)N1 [Compound A240] | +++ (Degradation > 70%)
4 | CN(CCN1CCN(c2ccc(N3CCC(=O)NC3=O)cc2)CC1)C(=O)c1ccc(Nc2ncc3c(n2)-c2ccc(C4CC4)cc2C(c2c(F)cccc2F)=NC3)cc1 [Compound A136] | +++ (Degradation > 70%)
5 | O=C1CCN(c2ccc(N3CCC(N4CCN(c5ccc(Nc6ncc7c(n6)-c6ccc(Cl)cc6C(c6c(F)cccc6F)=NC7)cc5)C5(COC5)C4)CC3)nc2)C(=O)N1 [Compound A233] | ++ (30% < Degradation ≤ 70%)
6 | O=C1CCN(c2ccc(N3CCC4(CC3)CC(NC(=O)C35CC(Nc6ncc7c(n6)-c6ccc(Cl)cc6C(c6c(F)cccc6F)=NC7)(C3)C5)C4)nc2)C(=O)N1 [Compound A195] | +++ (Degradation > 70%)
7 | Cn1nc(N2CCC(=O)NC2=O)c2cccc(N3CCC4(CC3)CC(N3CCN(c5ccc(Nc6ncc7c(n6)-c6ccc(Cl)cc6C(c6c(F)cccc6F)=NC7)cc5)CC3)CO4)c21 (stereo not drawn) [Compound A364] | +++ (Degradation > 70%)
8 | O=C1CCN(c2cncc(N3CCN(CC4CN(c5cccc(Nc6ncc7c(n6)-c6ccc(Cl)cc6C(c6c(F)cccc6F)=NC7)c5)C4)CC3)c2)C(=O)N1 [Compound A197] | +++ (Degradation > 70%)
9 | O=C1CCN(c2ccc(N3CCN(C(=O)[C@@H]4CN(c5ccc(Nc6ncc7c(n6)-c6ccc(Cl)cc6C(c6c(F)cccc6F)=NC7)cc5)CCO4)CC3)nc2)C(=O)N1 [Compound A324] | +++ (Degradation > 70%)
10 | O=C1CCN(c2ccc(N3CCN(C(=O)N4CCN(c5ccc(Nc6ncc7c(n6)-c6ccc(Cl)cc6C(c6c(F)cccc6F)=NC7)cc5)CC4)CC3)nc2)C(=O)N1 [Compound A258] | +++ (Degradation > 70%)
11 | CP(C)(=O)c1ccc2c(c1)C(c1c(F)cccc1F)=NCc1cnc(Nc3ccc(N4CC(CN5CCN(c6ccc(N7CCC(=O)NC7=O)cn6)CC5)C4)cc3)nc1-2 [Compound A269] | +++ (Degradation > 70%)
12 | N#Cc1cc(N2CCC(=O)NC2=O)ccc1N1CCN(C(=O)C2CCN(c3ccc(Nc4ncc5c(n4)-c4ccc(Cl)cc4C(c4c(F)cccc4F)=NC5)cc3)CC2)CC1 [Compound A296] | +++ (Degradation > 70%)
13 | N#Cc1cc(Nc2ncc3c(n2)-c2ccc(Cl)cc2C(c2c(F)cccc2F)=NC3)ccc1N1CCN(C2CCN(c3ccc(N4CCC(=O)NC4=O)cn3)CC2)CC1 [Compound A211] | ++ (30% < Degradation ≤ 70%)

same assay, conditions: 1 µM compound, Jurkat cells, 24 h, Table 2

Row | Structure (SMILES) | Percentage of AURKA Degradation Induced by 1 µM Compound in Jurkat Cells
14 | COc1cc(Nc2ncc3c(n2)-c2ccc(Cl)cc2C(c2c(F)cccc2OC)=NC3)ccc1N1CCN(C2CCN(c3ccc(N4CCC(=O)NC4=O)cn3)CC2)CC1 [Compound A256] | +++ (Degradation > 70%)
15 | O=C1CCN(c2ccc(N3CCN(CC4(O)CN(c5ccc(Nc6ncc7c(n6)-c6ccc(Cl)cc6C(c6c(F)cccc6F)=NC7)cc5)C4)CC3)nc2)C(=O)N1 [Compound A281] | +++ (Degradation > 70%)
16 | O=C1CCN(c2cccc(N3CCC(CN4CCOc5ccc(Nc6ncc7c(n6)-c6ccc(Cl)cc6C(c6c(F)cccc6F)=NC7)cc5C4)CC3)c2)C(=O)N1 [Compound A240] | +++ (Degradation > 70%)
17 | CN(CCN1CCN(c2ccc(N3CCC(=O)NC3=O)cc2)CC1)C(=O)c1ccc(Nc2ncc3c(n2)-c2ccc(C4CC4)cc2C(c2c(F)cccc2F)=NC3)cc1 [Compound A136] | +++ (Degradation > 70%)
18 | O=C1CCN(c2ccc(N3CCC(N4CCN(c5ccc(Nc6ncc7c(n6)-c6ccc(Cl)cc6C(c6c(F)cccc6F)=NC7)cc5)C5(COC5)C4)CC3)nc2)C(=O)N1 [Compound A233] | +++ (Degradation > 70%)
19 | O=C1CCN(c2ccc(N3CCC4(CC3)CC(NC(=O)C35CC(Nc6ncc7c(n6)-c6ccc(Cl)cc6C(c6c(F)cccc6F)=NC7)(C3)C5)C4)nc2)C(=O)N1 [Compound A195] | +++ (Degradation > 70%)
20 | Cn1nc(N2CCC(=O)NC2=O)c2cccc(N3CCC4(CC3)CC(N3CCN(c5ccc(Nc6ncc7c(n6)-c6ccc(Cl)cc6C(c6c(F)cccc6F)=NC7)cc5)CC3)CO4)c21 (stereo not drawn) [Compound A364] | +++ (Degradation > 70%)
21 | O=C1CCN(c2cncc(N3CCN(CC4CN(c5cccc(Nc6ncc7c(n6)-c6ccc(Cl)cc6C(c6c(F)cccc6F)=NC7)c5)C4)CC3)c2)C(=O)N1 [Compound A197] | +++ (Degradation > 70%)
22 | O=C1CCN(c2ccc(N3CCN(C(=O)[C@@H]4CN(c5ccc(Nc6ncc7c(n6)-c6ccc(Cl)cc6C(c6c(F)cccc6F)=NC7)cc5)CCO4)CC3)nc2)C(=O)N1 [Compound A324] | +++ (Degradation > 70%)
23 | O=C1CCN(c2ccc(N3CCN(C(=O)N4CCN(c5ccc(Nc6ncc7c(n6)-c6ccc(Cl)cc6C(c6c(F)cccc6F)=NC7)cc5)CC4)CC3)nc2)C(=O)N1 [Compound A258] | +++ (Degradation > 70%)
24 | CP(C)(=O)c1ccc2c(c1)C(c1c(F)cccc1F)=NCc1cnc(Nc3ccc(N4CC(CN5CCN(c6ccc(N7CCC(=O)NC7=O)cn6)CC5)C4)cc3)nc1-2 [Compound A269] | +++ (Degradation > 70%)
25 | N#Cc1cc(N2CCC(=O)NC2=O)ccc1N1CCN(C(=O)C2CCN(c3ccc(Nc4ncc5c(n4)-c4ccc(Cl)cc4C(c4c(F)cccc4F)=NC5)cc3)CC2)CC1 [Compound A296] | +++ (Degradation > 70%)
26 | N#Cc1cc(Nc2ncc3c(n2)-c2ccc(Cl)cc2C(c2c(F)cccc2F)=NC3)ccc1N1CCN(C2CCN(c3ccc(N4CCC(=O)NC4=O)cn3)CC2)CC1 [Compound A211] | +++ (Degradation > 70%)

system: H82 cells; test: cells; format: cell-based; details: Homo sapiens, NCI-H82, read-out: IC50 in H82 Cells
Summary of the method: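 H82 cells in RPMI1640 + 10% FBS exposed to compound (0.1% DMSO final) for 6 days at 37 °C, 5% CO2. Viability read by CellTiter-Glo ATP luminescence, normalised to DMSO and medium controls; IC50 from nonlinear regression of the dose–survival curve.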

Row | Structure (SMILES) | IC50 [nM]
27 | Cn1nc(N2CCC(=O)NC2=O)c2cccc(N3CCC4(CC3)CC(N3CCN(c5ccc(Nc6ncc7c(n6)-c6ccc(Cl)cc6C(c6c(F)cccc6F)=NC7)cc5)CC3)CO4)c21 (stereo not drawn) [Compound A364] | < 1000

same assay, conditions: Homo sapiens, NCI-H82; H82 cells, 4000 cells/well, CellTiter-Glo; read-out: IC50 in H82 Cells

Row | Structure (SMILES) | IC50 [nM]
28 | COc1cc(Nc2ncc3c(n2)-c2ccc(Cl)cc2C(c2c(F)cccc2OC)=NC3)ccc1N1CCN(C2CCN(c3ccc(N4CCC(=O)NC4=O)cn3)CC2)CC1 [Compound A256] | < 1000
29 | O=C1CCN(c2ccc(N3CCN(CC4(O)CN(c5ccc(Nc6ncc7c(n6)-c6ccc(Cl)cc6C(c6c(F)cccc6F)=NC7)cc5)C4)CC3)nc2)C(=O)N1 [Compound A281] | < 1000
30 | O=C1CCN(c2cccc(N3CCC(CN4CCOc5ccc(Nc6ncc7c(n6)-c6ccc(Cl)cc6C(c6c(F)cccc6F)=NC7)cc5C4)CC3)c2)C(=O)N1 [Compound A240] | < 1000
31 | CN(CCN1CCN(c2ccc(N3CCC(=O)NC3=O)cc2)CC1)C(=O)c1ccc(Nc2ncc3c(n2)-c2ccc(C4CC4)cc2C(c2c(F)cccc2F)=NC3)cc1 [Compound A136] | < 1000
32 | O=C1CCN(c2ccc(N3CCC(N4CCN(c5ccc(Nc6ncc7c(n6)-c6ccc(Cl)cc6C(c6c(F)cccc6F)=NC7)cc5)C5(COC5)C4)CC3)nc2)C(=O)N1 [Compound A233] | < 1000
33 | O=C1CCN(c2ccc(N3CCC4(CC3)CC(NC(=O)C35CC(Nc6ncc7c(n6)-c6ccc(Cl)cc6C(c6c(F)cccc6F)=NC7)(C3)C5)C4)nc2)C(=O)N1 [Compound A195] | < 1000
34 | O=C1CCN(c2cncc(N3CCN(CC4CN(c5cccc(Nc6ncc7c(n6)-c6ccc(Cl)cc6C(c6c(F)cccc6F)=NC7)c5)C4)CC3)c2)C(=O)N1 [Compound A197] | < 1000
35 | O=C1CCN(c2ccc(N3CCN(C(=O)[C@@H]4CN(c5ccc(Nc6ncc7c(n6)-c6ccc(Cl)cc6C(c6c(F)cccc6F)=NC7)cc5)CCO4)CC3)nc2)C(=O)N1 [Compound A324] | < 1000
36 | O=C1CCN(c2ccc(N3CCN(C(=O)N4CCN(c5ccc(Nc6ncc7c(n6)-c6ccc(Cl)cc6C(c6c(F)cccc6F)=NC7)cc5)CC4)CC3)nc2)C(=O)N1 [Compound A258] | < 1000
37 | CP(C)(=O)c1ccc2c(c1)C(c1c(F)cccc1F)=NCc1cnc(Nc3ccc(N4CC(CN5CCN(c6ccc(N7CCC(=O)NC7=O)cn6)CC5)C4)cc3)nc1-2 [Compound A269] | 1000 to 10000
38 | N#Cc1cc(N2CCC(=O)NC2=O)ccc1N1CCN(C(=O)C2CCN(c3ccc(Nc4ncc5c(n4)-c4ccc(Cl)cc4C(c4c(F)cccc4F)=NC5)cc3)CC2)CC1 [Compound A296] | < 1000
39 | N#Cc1cc(Nc2ncc3c(n2)-c2ccc(Cl)cc2C(c2c(F)cccc2F)=NC3)ccc1N1CCN(C2CCN(c3ccc(N4CCC(=O)NC4=O)cn3)CC2)CC1 [Compound A211] | < 1000
